Measurements taken from PubChem BioAssay AID330 (DTP/NCI, 2004).
“And” between values parts separate entries of the source, which are not always exact repeats. Identical values can stand only once. Toxic doses and inconclusive results are not listed. How the source made its calls: active means survival T/C of 150% or more; inactive means T/C below 125% in these data.

Test system: P388 leukemia ip, CD2F1 mice, survival T/C
Experiment: NCI In Vivo Anticancer Drug Screen. Data for tumor model P388 Leukemia (intraperitoneal) in CD2F1 (CDF1) mice
Conditions: endpoint: median survival time, higher = longer survival
Outline: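 Mice carrying the transplanted tumor received test compound or vehicle. Survival was recorded in each group, and the value is the treated-group measurement divided by that of the vehicle-treated control group.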

[1] = dose: 25.0 mg/kg/injection, schedule: Q04DX002 (ip), vehicle: saline with Tween-80
[2] = dose: 50.0 mg/kg/injection, schedule: Q04DX002 (ip), vehicle: saline with Tween-80
[3] = dose: 100.0 mg/kg/injection, schedule: Q04DX002 (ip), vehicle: saline with Tween-80

Measured: T/C

BrC=C1c2ccccc2-c2ccccc21
inactive: dose: 100.0 mg/kg/injection, schedule: Q04DX003 (ip), vehicle: Klucel (hydroxypropylcellulose) (HPC) 100 % of control | dose: 200.0 mg/kg/injection, schedule: Q04DX003 (ip), vehicle: Klucel (hydroxypropylcellulose) (HPC) 91 % of control | dose: 400.0 mg/kg/injection, schedule: Q04DX003 (ip), vehicle: Klucel (hydroxypropylcellulose) (HPC) 102 % of control

COC(CNC(=O)COc1ccccc1OCC(=O)NCC(OC)OC)OC
inactive: dose: 50.0 mg/kg/injection, schedule: Q01DX005 (ip), vehicle: saline 99 % of control | dose: 100.0 mg/kg/injection, schedule: Q01DX005 (ip), vehicle: saline 102 % of control | dose: 200.0 mg/kg/injection, schedule: Q01DX005 (ip), vehicle: saline 102 % of control

CC1(C)CN(Cc2ccccc2)CCOC1N1CCOCC1 (configuration not stated)
inactive: dose: 50.0 mg/kg/injection, schedule: Q01DX005 (ip), vehicle: saline with Tween-80 93 % of control | dose: 100.0 mg/kg/injection, schedule: Q01DX005 (ip), vehicle: saline with Tween-80 101 % of control | dose: 200.0 mg/kg/injection, schedule: Q01DX005 (ip), vehicle: saline with Tween-80 115 % of control

O=C(O)c1cc2c3ccccc3ncc2c2ccccc12
inactive: dose: 100.0 mg/kg/injection, schedule: Q01DX001 (ip), vehicle: saline with Tween-80 113 % of control | dose: 200.0 mg/kg/injection, schedule: Q01DX001 (ip), vehicle: saline with Tween-80 100 % of control | dose: 400.0 mg/kg/injection, schedule: Q01DX001 (ip), vehicle: saline with Tween-80 100 % of control

Cc1cc(N(C)C)ccc1/C=C/c1ccnc2ccccc12
inactive: [1] 109 % of control | [2] 118 % of control | [3] 113 % of control

Cc1ccc2nc(C[n+]3cccc4ccccc43)ccc2c1
inactive: dose: 0.38 mg/kg/injection, schedule: Q01DX005 (ip), vehicle: saline 107 % of control | dose: 0.75 mg/kg/injection, schedule: Q01DX005 (ip), vehicle: saline with Tween-80 113 % of control | dose: 0.75 mg/kg/injection, schedule: Q01DX005 (ip), vehicle: saline 115 % of control and 122 % of control | dose: 1.5 mg/kg/injection, schedule: Q01DX005 (ip), vehicle: saline with Tween-80 115 % of control | dose: 1.5 mg/kg/injection, schedule: Q01DX005 (ip), vehicle: saline 116 % of control | dose: 3.0 mg/kg/injection, schedule: Q01DX005 (ip), vehicle: saline with Tween-80 100 % of control | dose: 3.0 mg/kg/injection, schedule: Q01DX005 (ip), vehicle: saline 114 % of control and 116 % of control | dose: 3.12 mg/kg/injection, schedule: Q01DX005 (ip), vehicle: saline with Tween-80 117 % of control

Cc1ccc(-c2cc3cc4c(cc3[nH]2)Sc2ccccc2O4)cc1
inactive: dose: 100.0 mg/kg/injection, schedule: Q01DX001 (ip), vehicle: Klucel (hydroxypropylcellulose) (HPC) 98 % of control | dose: 200.0 mg/kg/injection, schedule: Q01DX001 (ip), vehicle: Klucel (hydroxypropylcellulose) (HPC) 89 % of control

CCN(CC)CCC1CN(C(C)C)CC1(c1ccccc1)c1ccccc1 (configuration not stated)
inactive: dose: 50.0 mg/kg/injection, schedule: Q01DX009 (ip), vehicle: saline 101 % of control | dose: 100.0 mg/kg/injection, schedule: Q01DX009 (ip), vehicle: saline 109 % of control | dose: 200.0 mg/kg/injection, schedule: Q01DX009 (ip), vehicle: saline 116 % of control

O=C1C(C(=Nc2ccc(Cl)cc2)c2ccccc2)=C(O)c2ccccc21
inactive: [1] 95 % of control | [2] 95 % of control | [3] 95 % of control

CCN1CCCC(Nc2cc(C)nc(Nc3nc4cc(Cl)c(Cl)cc4[nH]3)n2)C1 (configuration not stated)
inactive: dose: 12.5 mg/kg/injection, schedule: Q01DX009 (ip), vehicle: Klucel (hydroxypropylcellulose) (HPC) 90 % of control

CC12C(=O)OC(=O)C1(C)C1CCC2O1 (configuration not stated)
inactive: dose: 0.93 mg/kg/injection, schedule: Q01DX005 (ip), vehicle: saline with Tween-80 109 % of control | dose: 1.87 mg/kg/injection, schedule: Q01DX005 (ip), vehicle: saline with Tween-80 102 % of control

CC(=O)OCC(COC(C)=O)=C1N=C(c2ccccc2)OC1=O
inactive: dose: 100.0 mg/kg/injection, schedule: Q04DX003 (ip), vehicle: saline with Tween-80 100 % of control | dose: 200.0 mg/kg/injection, schedule: Q04DX003 (ip), vehicle: saline with Tween-80 100 % of control | dose: 400.0 mg/kg/injection, schedule: Q04DX003 (ip), vehicle: saline with Tween-80 100 % of control
